Results from patent US7626021B2, “Fused ring heterocycle kinase modulators” (SGX Pharmaceuticals, Inc., priority 2004, dated 2009).

Target: T1, MET kinase (Homo sapiens, UniProt P08581)
T1 construct: Sf9 insect cell culture expressing the kinase domain of human Met; 6x Histidine tag (TEV-cleavable) (cleaved yes); made in house; host or cells: Sf9 insect cells
Test: MET luminescence-based enzyme assay (Kinase-Glo)
Assay type: biochemical
Description: In addition to the c-Abl PK/LDH coupled assay (above), homogeneous luminescence-based inhibitor screening assays were developed for c-Abl, MET, AurA, and PDK1 kinases (among others). Each of these assays made use of an ATP depletion assay (Kinase-Glo™, Promega Corporation, Madison, Wis.) to quantitate kinase activity. The Kinase-Glo™ format uses a thermostable luciferase to generate luminescent signal from ATP remaining in solution following the kinase reaction. The luminescent signal is inversely correlated with the amount of kinase activity.
MET Luminescence-based Enzyme Assay
Materials: Poly Glu-Tyr (4:1) substrate (Sigma Cat# P-0275), ATP (Sigma Cat#A-3377, FW=551), HEPES buffer, pH 7.5, Bovine serum albumin (BSA) (Roche 92423420), MgCl2, Staurosporine (Streptomyces sp. Sigma Cat#85660-1MG), white Costar 384-well flat-bottom plate (VWR Cat#29444-088). […]
Standard Assay Setup for 384-well format (20 μl kinase reaction, 40 μl detection reaction): 10 mM MgCl2; 0.3 mg/ml poly Glu-Tyr; 0.1% BSA; 1 μl test compound (in DMSO); 0.4 μg/ml MET kinase; 10 μM ATP; 100 mM HEPES buffer. […] Kinase reactions were incubated at 21° C. for 60 min, then 20 μl of Kinase-Glo™ reagent were added to each well to quench the kinase reaction and initiate the luminescence reaction. After a 20 min incubation at 21° C., the luminescence was detected in a plate-reading luminometer.

T1 sequence (P08581 1078-1345 limits assumed): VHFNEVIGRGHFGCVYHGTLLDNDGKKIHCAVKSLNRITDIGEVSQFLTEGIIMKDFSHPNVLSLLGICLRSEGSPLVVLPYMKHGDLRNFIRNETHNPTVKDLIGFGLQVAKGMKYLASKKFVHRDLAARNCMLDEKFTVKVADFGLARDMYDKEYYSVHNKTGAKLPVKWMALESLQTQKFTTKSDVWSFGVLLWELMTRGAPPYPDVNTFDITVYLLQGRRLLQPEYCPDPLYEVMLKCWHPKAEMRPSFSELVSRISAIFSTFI

IC50: 1 to 10 µM
Compound: CCN1CCN(C(=O)c2cccc(-c3cnc4[nH]nc(-c5cc(F)ccc5OC)c4c3)c2)CC1
